Structures can show the parent of a compound that is named as a salt.
What was measured:
phosphodiesterase [1] = experiment: Inhibition of phosphodiesterase isolated from rat brain tissue (radioisotopic technique, tritium-labelled c-AMP); format: biochemical; conditions: 20 minutes incubation, % of control
phosphodiesterase [2] = experiment: as above; format: biochemical; conditions: 20 minutes incubation, % of control; remark: listed apart in the source
Experimental: Our model experiments were carried out by means of phosphodiesterase isolated from animal tissues. More particularly, the enzyme was isolated from the brain tissue of rats following the method of J. Schroder and H. V. Richenberg [Biochem. Biophys. Acta 302, 50 (1973)], whereupon the isolated phosphodiesterase was purified by the method of J. G. Hardman and E. W. Sutherland [J. Biol. Chem. 240, 3704 (1965)]. Finally, the activity of the purified enzyme was measured by the radioisotopic technique of G. Poch, in the presence of an excess amount of tritium-labelled c-AMP, in an incubator, initially without the inhibiting system and thereafter in the presence of a compound of the formula (I) as an inhibitor. The enzyme activity was determined after an incubation time of 20 minutes [N. S. Arch. Pharmacol. 268, 272 (1971)]. From the salts of the test compounds of the formula (I) aqueous 10^-3 molar stock solutions were prepared, their pH was adjusted to 4 to 5. To the incubated enzyme preparations suitable amounts of the stock solution were added in order to obtain a series of test solutions containing a compound of the formula (I) in a concentration of 10^-5, 5× 10^-5, 10^-4, 5×10^-4 and 10^-3 moles/lit. […] The degree of inhibition (decrease of enzyme activity) was expressed in % of the control (enzyme preparation containing no inhibitor).

psoriasis = conditions: Voorhees et al.; cited from earlier work
phosphodiesterase [3] = conditions: Voorhees et al.; cited from earlier work
adenyl cyclase = conditions: Voorhees et al.; cited from earlier work

Inhibition (%) obtained by 5 × 10^-6 moles/lit. concentrations of the test compounds (phosphodiesterase [1]) [%]	Inhibition (%) obtained by 1 × 10^-4 moles/lit. concentrations of the test compounds (phosphodiesterase [2]) [%]	Inhibition (%) obtained by 1 × 10^-5 moles/lit. concentrations of the test compounds (phosphodiesterase [2]) [%]	Inhibition (%) obtained by 5 × 10^-5 moles/lit. concentrations of the test compounds (phosphodiesterase [2]) [%]	SMILES	influencing psoriasis (psoriasis)	inhibition of the function of phosphodiesterase (phosphodiesterase [3])	stimulation of the function of adenyl cyclase (adenyl cyclase)
21.9	54.8	20.3	33.5	CC[C@@]12C=C(C(=O)OC)n3c4c(c5ccccc53)CCN(CCC1)[C@H]42 [Apovincamine]	–	–	–
10.0	76.9	22.0	60.0	CC[C@@]12C=C(C(N)=O)n3c4c(c5ccccc53)CCN(CCC1)[C@H]42 [Apovincaminic acid amide]	–	–	–
–	57.0	–	32.0	CC[C@@]12C=C(C(=O)NN)n3c4c(c5ccccc53)CCN(CCC1)[C@H]42 [Apovincaminic acid-hydrazide, apovincaminic acid hydrazide]	–	–	–
36.6	71.8	49.0	59.4	CC[C@@]12C=C(C(=O)OC)n3c4c(c5ccc(OC)cc53)CCN(CCC1)[C@H]42 [Apovincine-KHSO4]	–	–	–
38.1	81.6	48.7	76.9	CC[C@@]12C=C(C(=O)OC)n3c4c(c5ccc(OC)cc53)CCN(CCC1)[C@H]42 [Apovincine-tartrate]	–	–	–
–	58.6	23.7	44.0	CCOC(=O)C1=C[C@]2(CC)CCCN3CCc4c(n1c1cc(OC)ccc41)[C@@H]32 [Apovincinic acid ethyl ester tartrate]	–	–	–
30.9	62.3	34.8	45.2	CC[C@@]12C=C(COC(C)=O)n3c4c(c5ccc(OC)cc53)CCN(CCC1)[C@H]42 [Tartrate salt of apovincinol-acetate]	–	–	–
–	–	–	–	Cn1c(=O)c2[nH]cnc2n(C)c1=O [Theophylline]	succeeded in influencing psoriasis	inhibit the function of phosphodiesterase	–
–	–	–	–	NC[C@H](O)c1ccc(O)c(O)c1 [norepinephrine]	succeeded in influencing psoriasis	–	stimulate the function of adenyl cyclase

SMILES	Inhibition (%) obtained by 5 × 10^-6 moles/lit. concentrations of the test compounds (phosphodiesterase [1]) [%]	Inhibition (%) obtained by 1 × 10^-4 moles/lit. concentrations of the test compounds (phosphodiesterase [2]) [%]	Inhibition (%) obtained by 1 × 10^-5 moles/lit. concentrations of the test compounds (phosphodiesterase [2]) [%]	Inhibition (%) obtained by 5 × 10^-5 moles/lit. concentrations of the test compounds (phosphodiesterase [2]) [%]	influencing psoriasis (psoriasis)	inhibition of the function of phosphodiesterase (phosphodiesterase [3])	stimulation of the function of adenyl cyclase (adenyl cyclase)
COc1ccc(Cc2nccc3cc(OC)c(OC)cc23)cc1OC [Papaverine, reference compound]	–	56.4	–	36.4	succeeded in influencing psoriasis	inhibit the function of phosphodiesterase	–

Source: patent publication US4328231A, “Method of treating psoriasis” (Richter Gedeon Vegyeszeti Gyar Rt., priority 1979, dated 1982)
